# In patent publication US20110015137A1, “RECA INHIBITORS AND THEIR USES AS MICROBIAL INHIBITORS OR POTENTIATORS OF ANTIBIOTIC ACTIVITY” (Trustees of Boston University, priority 2007, published 2011):
# Structures can show the parent of a compound that is named as a salt.
# Molecular target: T1, E. coli RecA protein (Escherichia coli, UniProt P0A7G6)
# T1 construct: purchased Epicentre, Madison, Wis
# Assay: High throughput RecA-luciferase assay (ATP remaining after RecA ATPase reaction)
# Format: biochemical
# Conditions: compounds identified from the screen of more than 22,000 compounds
# Method: RecA is a DNA-dependent ATPase (i.e., it catalyzes the reaction adenosine triphosphate [ATP]→adenosine diphosphate [ADP]). An assay was developed for RecA ATPase activity based on detection of the amount of ATP remaining in a reaction mixture following incubation of RecA protein, DNA, and ATP. In an exemplary assay, E. coli RecA protein is incubated in reaction buffer with DNA, ATP, and any test compound or compounds for a measured amount of time. The quantity of ATP remaining after the RecA reaction can be quantitated using a subsequent luciferase assay. The luciferase emits more light as more ATP is available. In some embodiments, the amount of ATP remaining can be compared to controls containing either a known inhibitor (full inhibition control) or no test compound (full activity control). In some embodiments, a positive control (having no DNA added to the well) and negative control (having DNA and no compounds) are run with each screen. Positive responses are based upon the percent reduction of activity of luciferase, with a high percentage representing increased RecA inhibition. Percent inhibition can be calculated according to the following equation: […]
# An in vitro RecA-luciferase assay was used to screen for RecA inhibitors. RecA is a DNA-dependent ATPase (i.e., it catalyzes the reaction adenosine triphosphate [ATP]→adenosine diphosphate [ADP]). An assay was developed for RecA ATPase activity based on detection of the amount of ATP remaining in a reaction mixture following incubation of RecA protein, DNA, and ATP. […] The quantity of ATP remaining after the RecA reaction was measured by a subsequent luciferase assay. The luciferase emit more light as more ATP was available.
# For high throughput screening, the following reagents were added to each well of a 384 well plate:
# The reagents were mixed and incubate at room temperature for about 5 minutes. Then, 5.0 μL of ATP mix, as indicated below, were added to each well.
# The mix was incubated at room temperature for about 90-120 minutes. 12.5 μL of Kinase-Glo® plus (Promega) were added to each well and incubated at room temperature for about 10 minutes or more. The luminescence of the reaction was measured.
# A positive control (having no DNA added to the well) and negative control (having DNA and no compounds) were run with each screen. Positive responses were based upon the percent reduction of activity of luciferase, with a high percentage representing increased RecA inhibition. Percent inhibition can be calculated according to the following equation: […]
# T1 sequence (P0A7G6 2-353): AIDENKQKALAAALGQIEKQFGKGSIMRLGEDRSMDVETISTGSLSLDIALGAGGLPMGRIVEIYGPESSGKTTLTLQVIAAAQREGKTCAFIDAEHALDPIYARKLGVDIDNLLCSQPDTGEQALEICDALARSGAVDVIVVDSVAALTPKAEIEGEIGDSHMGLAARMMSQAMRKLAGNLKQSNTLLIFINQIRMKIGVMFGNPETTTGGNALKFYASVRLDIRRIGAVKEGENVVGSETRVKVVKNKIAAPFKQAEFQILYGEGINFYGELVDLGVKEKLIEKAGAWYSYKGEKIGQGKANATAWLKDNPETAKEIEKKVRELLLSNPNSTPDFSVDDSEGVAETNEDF
row,Molecule,activity in the RecA-luciferase screen (in words)
1,CCN(CC)CCCC(C)Nc1c2ccc(Cl)cc2nc2ccc(OC)cc12 (stereo not drawn) [quinacrine hydrochloride],particularly active
2,doxorubicin hydrochloride,particularly active
3,Cl.Cl.O=C1c2c(O)ccc(O)c2C(=O)c2c(NCCNCCO)ccc(NCCNCCO)c21 [mitoxathrone hydrochloride],particularly active
4,COc1cc2cc3c4cc(OC)c(OC)cc4cc[n+]3c(C)c2cc1OC.[Cl-] [coralyne chloride],particularly active
5,Oc1c(Cl)cc(Cl)cc1Sc1cc(Cl)cc(Cl)c1O [bithionol],particularly active
6,C[n+]1c2cc(N)ccc2cc2ccc(N)cc21.[Cl-] [acriflavinium hydrochloride],particularly active
7,Oc1c(Cl)cc(Cl)c(Cl)c1Cc1c(O)c(Cl)cc(Cl)c1Cl [hexachlorophene],particularly active
8,Nc1c2ccccc2nc2ccccc12 [acrisorcin],particularly active
9,COc1cccc2c1C(=O)c1c(O)c3c(c(O)c1C2=O)C[C@@](O)(C(C)=O)C[C@@H]3O[C@H]1C[C@H](N)[C@H](O)[C@H](C)O1 [daunorubicin hydrochloride],particularly active
10,CC[n+]1c(-c2ccccc2)c2cc(N)ccc2c2ccc(N)cc21 [homidium bromide],particularly active
11,CC[N+](C)(CC)CCC[n+]1c(-c2ccccc2)c2cc(N)ccc2c2ccc(N)cc21.[I-].[I-] [propidium iodide],particularly active
12,Cc1c2ccncc2c(C)c2c1[nH]c1ccccc12 [ellipticine],particularly active
13,COc1cc2cc3c4cc(OC)c(OC)cc4cc[n+]3c(C)c2cc1OC.O.[Cl-] [coralyne chloride hydrate],particularly active
14,Cc1cc(N)c2ccccc2[n+]1CCCCCCCCCC[n+]1c(C)cc(N)c2ccccc21 [dequalinium chloride],particularly active

# Tested on: S. aureus strain S3
# Assay: Cell growth assay, first assay (gentamycin potentiation)
# Format: cell-based
# Conditions: gentamycin alone, sublethal concentration 0.3 μg/mL
# Method: Cell Growth Assay. This assay measures the ability of cells to grow in the presence of a sublethal dose (i.e., a dose below the MIC) of an antibiotic agent (or test agent, or combination thereof). In general, cells are grown, typically to saturation, and are then diluted and inoculated onto rich medium and onto medium containing a sublethal dose of antibiotic agent. Plates are then grown overnight, and OD600 is measured after overnight growth, as compared with blank plate. If desired, a test agent can be added to the plate, either alone or in combination with the known antibiotic agent, and the ratio of OD600 in the presence of the test agent to OD600 in the absence of the test agent, can be determined. Additional ratios that can be useful as controls include, for example, OD600 in the presence vs. absence of antibiotic agent; OD600 in the absence of any agent vs. in the presence of both antibiotic agent and test agent; etc.
# Actinomycin D Potentiates Gentamycin: In the first assay, S. aureus strain S3 was used in a cell growth assay as described in FIG. 4. The strain was grown in the presence and absence of gentamycin and actinomycin D. Various concentrations of gentamycin and actinomycin D were used. Specifically, 40 μL gentamycin stock (5 mg/mL) was first diluted in 360 μL H2O. Then, 200 μL of the diluted gentamycin solution was further mixed with 200 μL H2O. […]
row,Molecule,growth of S. aureus strain S3
1,gentamycin,grew equally well
